This experiment has as its target T1, SIRT3 (Homo sapiens, UniProt Q9NTG7).
T1 sequence (Q9NTG7 1-399): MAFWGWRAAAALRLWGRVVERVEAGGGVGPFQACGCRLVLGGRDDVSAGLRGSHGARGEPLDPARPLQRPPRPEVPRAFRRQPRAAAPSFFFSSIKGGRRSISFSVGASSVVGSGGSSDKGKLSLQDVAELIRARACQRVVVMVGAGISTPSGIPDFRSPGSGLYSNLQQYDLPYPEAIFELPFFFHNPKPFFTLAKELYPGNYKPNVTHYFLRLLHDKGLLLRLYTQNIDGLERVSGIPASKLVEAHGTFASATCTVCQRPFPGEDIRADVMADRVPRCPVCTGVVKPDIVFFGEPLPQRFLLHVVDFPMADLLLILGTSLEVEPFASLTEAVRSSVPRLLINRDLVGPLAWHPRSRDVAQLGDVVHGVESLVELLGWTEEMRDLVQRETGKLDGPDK
In words: SIRT3 discontinuous demyristoylation inhibition assay. It is filed as biochemical. The method, then: Inhibition of the enzymatic activity of HDACs was performed continuously for HDAC8, HDAC11, and SIRT2 and discontinuously for SIRT2, 3, and 6 using adequate substrates as described previously. , Experimental details are given in the Supporting Information.
A. HDAC and SIRT deacylase activity assays […]
140 mM NaCl, 10 mM MgCl 2, 1 mM tris(2-carboxyethyl)phosphine (TCEP), and 0.2 mg/ml BSA, pH 7.4 adjusted with NaOH), HDAC11 buffer (20 mM HEPES, 70 µM TCEP and 2 mg/ml BSA, pH 7.4 adjusted with NaOH) or SIRT buffer (20 mM Tris, 150 mM NaCl, 5 mM MgCl2 and 2 mg/ml BSA pH 7.8 adjusted with HCl), respectively. The thiotrifluoracetylated substrate Abz-SRGGK(thio-TFA)FFRR-NH2 (50 µM) […]
Aun is N-(2-aminobenzoyl)-11-aminoundecanoyl, was used for HDAC11 and Ac-EALPKK(Myr)T-C(Fluorescein)-G-NH2 (40 nM) was used for SIRT2 1-3. […]
(substrate, DMSO, and Buffer) controls were included in every measurement and were set as 100% and 0%, respectively. The measured values were normalized accordingly. […]
Reactions were stopped after 20 min by adding a constant volume of reaction mixture to stop solution (5 % acetonitrile (ACN) (v/v) and 1 % trifluoroacetic acid (TFA) (v/v) in dd. H 2O). The samples were analysed using HPLC-UV/VIS at λ Abs = 220 nm, λ Ex = 320 nm und λ Em = 420 nm. […]
100 nM, SIRT3: 200 nM, SIRT6: 500 nM). […] The samples were analysed using HPLC-UV/VIS at λ Abs = 360 nm. […]

Each structure is given as a SMILES string.

In the case of `CCCCCCCCCCCCSC[C@@H](N)C(=O)NCCCC[C@@H]1NC(=O)[C@H](CCC(N)=O)NC1=O` [Compound 31], the IC50 is over 100 µM. The inhibition at 50 µM (50 μM 31) turned out to be 1.6%.

(Values after PMC12573178, “Substrate-Guided Development of HDAC11-Selective Inhibitors Featuring α‑Amino Amide Zinc-Binding Groups” (ACS Omega, 2025).)
